Test results: US20240109918A1, “HETEROCYCLIC COMPOUNDS AND USES THEREOF” (Kumquat Biosciences Inc., priority 2022, published 2024)

Key:
[1] = biological target: T1, KRASwt (Homo sapiens, UniProt P01116); assay: Bio-Biochem-PPI-HTRF Ras-SOS1 interaction assay (KRAS wt); assay type: biochemical; details: 5 nM
T1 construct: made in house; host or cells: E. coli BL21 (DE3)
Description: (§1) The assay buffer can contain −5 mM HEPES pH 7.4, ˜150 mM NaCl, ˜ 1 mM DTT, 0.05% BSA and 0.0025% (v/v) Igepal. A Ras working solution is prepared in an assay buffer containing typically a suitable amount of the protein construct (e.g., GST-tagged K-Ras mutant) and the FRET donor (e.g., antiGST-Eu(K) from Cisbio, France). A SOS1 working solution is prepared in an assay buffer containing suitable amount of the protein construct (e.g., His-hSOS1) and the FRET acceptor (e.g., anti-6His-XL665 from Cisbio, France). A suitable amount of the protein construct will depend on the range of activity or range of IC50 values being detected or under investigation. For detecting IC50 within a range of 500 nM, the protein constructs of the same range of molarity can be utilized. […] A fixed volume of DMSO with or without test compound is transferred into a 384-well plate. Ras working solution is added to all wells of the test plate. SOS1 working solution is added to all wells except for those that are subsequently filled the inhibitor control solution. Upon incubation for about 10 minutes or longer, the fluorescence is measured with a M1000Pro plate reader (Tecan) using HTRF detection (excitation 337 nm, emission 1:620 nm, emission 2: 665 nm). Compounds are tested in duplicates at different concentrations (for example, 10 μM, 2.5 μM, 0.63 μM, 0.16 μM, 0.04 μM, 0.01 μM test compound). The ratiometric data (i.e., emission 2 divided by emission 1) is used to calculate IC50 values against Ras using GraphPad Prism (GraphPad software). Following this general procedure, samples were tested with or without a subject compound disclosed herein including compounds exemplified in Table 1 to assess their abilities to inhibit a mutant K-Ras relative to another mutant K-Ras or wildtype K-Ras. Signaling output measured in terms of IC50 values can be obtained, a ratio of IC50 against one mutant relative to another mutant can be calculated. For instance, a selective reduction of K-Ras G12D signaling output can be evidenced by a ratio greater than one. In particular, a selective reduction of K-Ras G12D signaling relative to K-Ras WT signaling is evidenced as the ratio of IC50 (against K-Ras WT) to IC50 (against K-Ras G12D) is greater than 1.

[2] = biological target: T2, KRASG12D (Homo sapiens, UniProt P01116, G12D); assay: Bio-Biochem-PPI-HTRF Ras-SOS1 interaction assay (KRAS G12D); assay type: biochemical; details: 5 nM
T2 construct: made in house; host or cells: E. coli BL21 (DE3)
Description: as §1

T2 sequence (P01116 1-188 isoform P01116-2 G12D): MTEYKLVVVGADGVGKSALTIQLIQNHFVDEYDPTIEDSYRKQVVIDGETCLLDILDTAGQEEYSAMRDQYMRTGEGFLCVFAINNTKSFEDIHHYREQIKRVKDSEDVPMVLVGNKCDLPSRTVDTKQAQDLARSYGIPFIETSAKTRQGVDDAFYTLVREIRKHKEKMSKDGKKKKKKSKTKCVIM
T1 sequence (P01116 1-188 isoform P01116-2): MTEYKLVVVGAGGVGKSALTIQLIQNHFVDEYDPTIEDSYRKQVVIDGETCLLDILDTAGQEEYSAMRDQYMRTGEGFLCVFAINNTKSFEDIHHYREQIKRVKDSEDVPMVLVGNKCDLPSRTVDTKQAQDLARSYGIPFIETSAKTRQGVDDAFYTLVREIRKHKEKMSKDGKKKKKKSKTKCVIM

Structure (SMILES)	IC50 [1] [µM]	IC50 [2] [µM]
N#Cc1c(N)sc2c(F)ccc(-c3c(Cl)cc4c(N5CCCCC6(CN(C(=O)[C@]78COC[C@H]7C8(F)F)C6)C5)nc(OC[C@@]56CCCN5C[C@H](F)C6)nc4c3F)c12 [compound 240, 2-amino-4-(6-chloro-4-(2-((1R,5S)-6,6-difluoro-3-oxabicyclo[3.1.0]hexane-1-carbonyl)-2,6-diazaspiro[3.6]decan-6-yl)-8-fluoro-2-(((2R,7aS)-2-fluorotetrahydro-1H-pyrrolizin-7a(5H)-yl)methoxy)quinazolin-7-yl)-7-fluorobenzo[b]thiophene-3-carbonitrile]	< 5	< 5
N#Cc1c(N)sc2c(F)ccc(-c3c(Cl)cc4c(N5CCCCC6(CN(C(=O)C78CC(F)(C7)C8)C6)C5)nc(OC[C@@]56CCCN5C[C@H](F)C6)nc4c3F)c12 [compound 199, 2-amino-4-(6-chloro-8-fluoro-4-(2-(3-fluorobicyclo[1.1.1]pentane-1-carbonyl)-2,6-diazaspiro[3.6]decan-6-yl)-2-(((2R,7aS)-2-fluorotetrahydro-1H-pyrrolizin-7a(5H)-yl)methoxy)quinazolin-7-yl)-7-fluorobenzo[b]thiophene-3-carbonitrile]	< 5	< 5
N#Cc1c(N)sc2c(F)ccc(-c3c(Cl)cc4c(N5CCCC6(CN(C(=O)N7CC[C@H]7C#N)C6)C5)nc(OC[C@@]56CCCN5C[C@H](F)C6)nc4c3F)c12 [compound 211, (2S)-1-(6-(7-(2-amino-3-cyano-7-fluorobenzo[b]thiophen-4-yl)-6-chloro-8-fluoro-2-(((2R,7aS)-2-fluorotetrahydro-1H-pyrrolizin-7a(5H)-yl)methoxy)quinazolin-4-yl)-2,6-diazaspiro[3.5]nonane-2-carbonyl)azetidine-2-carbonitrile]	< 5	< 5
N#Cc1c(N)sc2c(F)ccc(-c3c(Cl)cc4c(N5CCCCC6(CN(C(=O)CC78CC(F)(C7)C8)C6)C5)nc(OC[C@@]56CCCN5C[C@H](F)C6)nc4c3F)c12 [compound 282, 2-amino-4-(6-chloro-8-fluoro-4-(2-(2-(3-fluorobicyclo[1.1.1]pentan-1-yl)acetyl)-2,6-diazaspiro[3.6]decan-6-yl)-2-(((2R,7aS)-2-fluorotetrahydro-1H-pyrrolizin-7a(5H)-yl)methoxy)quinazolin-7-yl)-7-fluorobenzo[b]thiophene-3-carbonitrile]	< 5	< 5
N#Cc1c(N)sc2c(F)ccc(-c3c(F)c4nc(OC[C@@]56CCCN5C[C@H](F)C6)nc(N5CCCCC6(CNC6)C5)c4c(=O)n3C3CC3)c12 [compound 198, 2-amino-4-(6-cyclopropyl-8-fluoro-2-(((2R,7aS)-2-fluorotetrahydro-1H-pyrrolizin-7a(5H)-yl)methoxy)-5-oxo-4-(2,6-diazaspiro[3.6]decan-6-yl)-5,6-dihydropyrido[4,3-d]pyrimidin-7-yl)-7-fluorobenzo[b]thiophene-3-carbonitrile]	< 5	< 5
N#Cc1c(N)sc2c(F)ccc(-c3c(Cl)cc4c(N5CCCCC6(CN(C(=O)C(F)Cl)C6)C5)nc(OC[C@@]56CCCN5C[C@H](F)C6)nc4c3F)c12 (stereo partly drawn) [compound 251, 2-amino-4-(6-chloro-4-(2-(2-chloro-2-fluoroacetyl)-2,6-diazaspiro [3.6]decan-6-yl)-8-fluoro-2-(((2R,7aS)-2-fluorotetrahydro-1H-pyrrolizin-7a(5H)-yl)methoxy)quinazolin-7-yl)-7-fluorobenzo[b]thiophene-3-carbonitrile]	< 5	< 5
CN(C)CC(=O)N1CC2(CCCN(c3nc(OC[C@@]45CCCN4C[C@H](F)C5)nc4c(F)c(-c5ccc(F)c6sc(N)c(C#N)c56)c(Cl)cc34)C2)C1 [compound 144, 2-amino-4-(6-chloro-4-(2-(dimethylglycyl)-2,6-diazaspiro[3.5]nonan-6-yl)-8-fluoro-2-(((2R,7aS)-2-fluorotetrahydro-1H-pyrrolizin-7a(5H)-yl)methoxy)quinazolin-7-yl)-7-fluorobenzo[b]thiophene-3-carbonitrile]	< 5	< 5
N#Cc1c(N)sc2c(F)ccc(-c3c(Cl)cc4c(N5CCCCC6(CN(C(=O)C(F)(F)F)C6)C5)nc(OC[C@@]56CCCN5C[C@H](F)C6)nc4c3F)c12 [compound 206, 2-amino-4-(6-chloro-8-fluoro-2-(((2R,7aS)-2-fluorotetrahydro-1H-pyrrolizin-7a(5H)-yl)methoxy)-4-(2-(2,2,2-trifluoroacetyl)-2,6-diazaspiro[3.6]decan-6-yl)quinazolin-7-yl)-7-fluorobenzo[b]thiophene-3-carbonitrile]	< 5	< 5
CC1(C)CN(c2nc(OC[C@@]34CCCN3C[C@H](F)C4)nc3c(F)c(-c4ccc(F)c5sc(N)nc45)c(Cl)cc23)CC2(CNC2)O1 [compound 166, 4-(6-chloro-4-(6,6-dimethyl-5-oxa-2,8-diazaspiro[3.5]nonan-8-yl)-8-fluoro-2-(((2R,7aS)-2-fluorotetrahydro-1H-pyrrolizin-7a(5H)-yl)methoxy)quinazolin-7-yl)-7-fluorobenzo[d]thiazol-2-amine]	< 5	< 5
CC1(C)CN(c2nc(OC[C@@]34CCCN3C[C@H](F)C4)nc3c(F)c(-c4ccc(F)c5sc(N)nc45)c(Cl)cc23)CC2(CN(C#N)C2)O1 [compound 180, 8-(7-(2-amino-7-fluorobenzo[d]thiazol-4-yl)-6-chloro-8-fluoro-2-(((2R,7aS)-2-fluorotetrahydro-1H-pyrrolizin-7a(5H)-yl)methoxy)quinazolin-4-yl)-6,6-dimethyl-5-oxa-2,8-diazaspiro[3.5] nonane-2-carbonitrile]	< 5	≥ 5
N#Cc1c(N)sc2c(F)ccc(-c3c(Cl)cc4c(N5CC(O)CCC6(CN(C(=O)[C@@H]7CC7(F)F)C6)C5)nc(OC[C@@]56CCCN5C[C@H](F)C6)nc4c3F)c12 (stereo partly drawn) [compound 275, 2-amino-4-(6-chloro-4-(2-((S)-2,2-difluorocyclopropane-1-carbonyl)-8-hydroxy-2,6-diazaspiro[3.6]decan-6-yl)-8-fluoro-2-(((2R,7aS)-2-fluorotetrahydro-1H-pyrrolizin-7a(5H)-yl)methoxy)quinazolin-7-yl)-7-fluorobenzo[b]thiophene-3-carbonitrile]	< 5	< 5
N#Cc1c(N)sc2c(F)ccc(-c3c(Cl)cc4c(N5CCCCC6(CN(C(=O)CCC(F)F)C6)C5)nc(OC[C@@]56CCCN5C[C@H](F)C6)nc4c3F)c12 [compound 337, 2-amino-4-(6-chloro-4-(2-(4,4-difluorobutanoyl)-2,6-diazaspiro[3.6]decan-6-yl)-8-fluoro-2-(((2R,7aS)-2-fluorotetrahydro-1H-pyrrolizin-7a(5H)-yl)methoxy)quinazolin-7-yl)-7-fluorobenzo[b]thiophene-3-carbonitrile]	< 5	< 5
N#Cc1c(N)sc2c(F)ccc(-c3c(Cl)cc4c(N5CCCCC6(CN(C(=O)CN7CCOCC7)C6)C5)nc(OC[C@@]56CCCN5C[C@H](F)C6)nc4c3F)c12 [compound 335, 2-amino-4-(6-chloro-8-fluoro-2-(((2R,7aS)-2-fluorotetrahydro-1H-pyrrolizin-7a(5H)-yl)methoxy)-4-(2-(2-morpholinoacetyl)-2,6-diazaspiro[3.6]decan-6-yl)quinazolin-7-yl)-7-fluorobenzo[b]thiophene-3-carbonitrile]	< 5	< 5
N#Cc1c(N)sc2c(F)ccc(-c3c(Cl)cc4c(N5CCCCC6(CN(C(=O)C7(C(F)F)COC7)C6)C5)nc(OC[C@@]56CCCN5C[C@H](F)C6)nc4c3F)c12 [compound 340, 2-amino-4-(6-chloro-4-(2-(3-(difluoromethyl)oxetane-3-carbonyl)-2,6-diazaspiro[3.6]decan-6-yl)-8-fluoro-2-(((2R,7aS)-2-fluorotetrahydro-1H-pyrrolizin-7a(5H)-yl)methoxy)quinazolin-7-yl)-7-fluorobenzo[b]thiophene-3-carbonitrile]	< 5	< 5
Nc1nc2c(-c3c(Cl)cc4c(N5CCC6(CC5)CN(S(=O)(=O)F)C6)nc(OC[C@@]56CCCN5C[C@H](F)C6)nc4c3F)ccc(F)c2s1 [compound 191, 7-(7-(2-amino-7-fluorobenzo[d]thiazol-4-yl)-6-chloro-8-fluoro-2-(((2R,7aS)-2-fluorotetrahydro-1H-pyrrolizin-7a(5H)-yl)methoxy)quinazolin-4-yl)-2,7-diazaspiro[3.5]nonane-2-sulfonyl fluoride]	< 5	≥ 5
